Like-named read-outs stand apart in the source and are kept apart here.
Legend:
E. coli SPase = E. coli SPase (Escherichia coli, UniProt P00803); experiment: Biochemical activity
S. aureus SPase = S. aureus SPase (Staphylococcus aureus, UniProt P0A070); experiment: Biochemical activity
E. coli (MG1655) = conditions: wild type MG1655; included for reference; cited from earlier work
[1] = test system: methicillin resistant S. aureus (MRSA) strain USA300; conditions: included for reference, cited from earlier work
[2] = test system: S. aureus (MSSA) strain 8325; conditions: wild type MSSA strain 8325; included for reference; cited from earlier work

S. aureus SPase, sequence (P0A070 whole entry): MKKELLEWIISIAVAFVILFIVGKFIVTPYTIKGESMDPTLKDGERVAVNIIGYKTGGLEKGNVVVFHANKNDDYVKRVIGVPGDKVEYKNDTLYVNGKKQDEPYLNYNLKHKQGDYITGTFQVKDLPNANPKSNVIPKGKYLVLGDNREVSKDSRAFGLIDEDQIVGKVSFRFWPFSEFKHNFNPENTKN
E. coli SPase, sequence (P00803 whole entry): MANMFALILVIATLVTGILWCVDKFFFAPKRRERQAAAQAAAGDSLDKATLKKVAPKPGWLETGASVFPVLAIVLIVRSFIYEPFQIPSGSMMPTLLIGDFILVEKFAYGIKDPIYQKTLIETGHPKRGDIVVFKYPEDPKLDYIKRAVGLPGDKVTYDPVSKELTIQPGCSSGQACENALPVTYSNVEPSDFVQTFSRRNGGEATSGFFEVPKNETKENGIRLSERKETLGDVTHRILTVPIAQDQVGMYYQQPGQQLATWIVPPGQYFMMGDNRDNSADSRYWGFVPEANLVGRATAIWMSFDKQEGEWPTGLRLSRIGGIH

For `CCCCCCCCCCCCCCCC(=O)N(C)[C@H](CO)C(=O)N[C@H](C)C(=O)NCC(=O)N(C)[C@@H]1C(=O)N[C@@H](C)C(=O)N[C@H](C(=O)NCC=O)Cc2ccc(O)c(c2)-c2cc1ccc2OP(=O)(OCc1ccccc1)OCc1ccccc1` [Compound 8], the “lower affinity on the glycyl aldehyde backbone” value (E. coli SPase; Hpg modification on glycyl aldehyde scaffold (of 5)) was 15 fold.

In the case of `CCCCCCCCCCCCCCCC(=O)N(C)[C@H](CO)C(=O)N[C@H](C)C(=O)NCC(=O)N(C)[C@@H]1C(=O)N[C@@H](C)C(=O)N[C@H](C(=O)O)Cc2ccc(O)c(c2)-c2cc1ccc2OCCN` [Compound 9], the “IC50 difference relative to arylomycin A-C16” value (S. aureus SPase) is reported as no more than 2 fold and the “IC50 difference relative to arylomycin A-C16” value (E. coli SPase) is reported as no more than 2 fold.

For `CCCCCCCCCCCCCCCC(=O)N(C)[C@H](CO)C(=O)N[C@H](C)C(=O)NCC(=O)N(C)[C@@H]1C(=O)N[C@@H](C)C(=O)N[C@H](C(=O)NCC=O)Cc2ccc(O)c(c2)-c2cc1ccc2O` [Compound 5], the “more potent than arylomycin A-C16” value (S. aureus SPase) was 40 fold and the “more potent than arylomycin A-C16” value (E. coli SPase) was 5 fold.

For `CCCCCCCCCCCCCCCC(=O)N(C)[C@H](CO)C(=O)N[C@H](C)C(=O)NCC(=O)N(C)[C@@H]1C(=O)N[C@@H](C)C(=O)N[C@H](C(=O)O)Cc2ccc(O)c(c2)-c2cc1ccc2O` [arylomycin A-C16], the “MIC E. coli” value (E. coli (MG1655)) is given as greater than 64 mg/L, the “MIC MRSA” value ([1]; listed as A-C16) is given as greater than 64 mg/L and the “MIC MRSA” value [1] is given as “no detectable activity”. The “MIC S. aureus” value [2] was greater than 64 mg/L.

In the case of `CCCCCCCCCCCCCCCC(=O)N(C)[C@H](CO)C(=O)N[C@H](C)C(=O)NCC(=O)N(C)[C@@H]1C(=O)N[C@@H](C)C(=O)N[C@H](C(=O)NCP(=O)(Oc2ccccc2)Oc2ccccc2)Cc2ccc(O)c(c2)-c2cc1ccc2O` [Compound 4], the “change of affinity/activity relative to parent, in words” value (S. aureus SPase) is reported as “lost virtually all affinity” and the “change of affinity/activity relative to parent, in words” value (E. coli SPase) is reported as “lost virtually all affinity”.

In the case of `CCCCCCCCCCCCCCCC(=O)N(C)[C@H](CO)C(=O)N[C@H](C)C(=O)NCC(=O)N(C)[C@@H]1C(=O)N[C@@H](C)C(=O)N[C@H](C(=O)O)Cc2ccc(O)c(c2)-c2cc1ccc2OP(=O)(O)O` [Compound 7], the “IC50 difference relative to arylomycin A-C16” value (S. aureus SPase) is reported as no more than 2 fold and the “IC50 difference relative to arylomycin A-C16” value (E. coli SPase) is reported as no more than 2 fold.

With `CCCCCCCCCCCCCCCC(=O)N(C)[C@H](CO)C(=O)N[C@H](C)C(=O)NCC(=O)N(C)[C@@H]1C(=O)N[C@@H](C)C(=O)N[C@H](C(=O)O)Cc2ccc(O)c(c2)-c2cc1ccc2OCCO` [Compound 11] the “IC50 difference relative to arylomycin A-C16” value (S. aureus SPase) was no more than 2 fold and the “IC50 difference relative to arylomycin A-C16” value (E. coli SPase) was no more than 2 fold.

With `CCCCCCCCCCCCCCCC(=O)N(C)[C@H](CO)C(=O)N[C@H](C)C(=O)NCC(=O)N(C)[C@@H]1C(=O)N[C@@H](C)C(=O)N[C@H](C(=O)NCP(=O)(O)O)Cc2ccc(O)c(c2)-c2cc1ccc2O` [Compound 1] the “loss of activity relative to parent arylomycin A-C16” value (S. aureus SPase) was ~ 10 fold and the “loss of activity relative to parent arylomycin A-C16” value (E. coli SPase) was ~ 10 fold.

With `CCCCCCCCCCCCCCCC(=O)N(C)[C@H](CO)C(=O)N[C@H](C)C(=O)NCC(=O)N(C)[C@@H]1C(=O)N[C@@H](C)C(=O)N[C@H](CC(=O)NCC=O)Cc2ccc(O)c(c2)-c2cc1ccc2O` [Compound 6] the “change of affinity/activity relative to parent, in words” value (S. aureus SPase) was “lost virtually all activity” and the “change of affinity/activity relative to parent, in words” value (E. coli SPase) was “lost virtually all activity”.

From PMC3981466 (Bioorganic & medicinal chemistry letters, 2013)
